Calls of active or inactive are those of the source. The calls are words filed in the database; no cut-off is given here.

Experiment [1] has as its system BV-2. Description: Neuroprotective activity against in OGD/R-induced mouse BV-2 cell injury assessed as cell viability at 0.1 uM measured after 24 hrs by MTT assay. Format: functional. The note with it: read-out: Activity. On the technique in general: Tetrazolium dyes change colour on reduction, which living cells bring about.
The subject of experiment [2] is BV-2. Description: Neuroprotective activity against in OGD/R-induced mouse BV-2 cell injury assessed as cell viability at 1 uM measured after 24 hrs by MTT assay. Format: functional. The conditions noted are these: read-out: Activity.
Experiment [3] has as its system BV-2. Description: Neuroprotective activity against in OGD/R-induced mouse BV-2 cell injury assessed as cell viability at 10 uM measured after 24 hrs by MTT assay. In kind it is functional. The note with it: read-out: Activity.
The test system of experiment [4] is BV-2. Description: Antiinflammatory activity in LPS-stimulated mouse BV-2 cells assessed as inhibition of TNF-alpha release at 10 uM and measured after 8 hrs by ELISA. In kind it is functional, cell-based.
Experiment [5] relates to BV-2. Description: Antiinflammatory activity in LPS-stimulated mouse BV-2 cells assessed as inhibition of IL-1beta release at 10 uM and measured after 8 hrs by ELISA. In kind it is functional, cell-based. In general terms: ELISA stands for enzyme-linked immunosorbent assay.
In experiment [6] the test system is BV-2. Description: Antiinflammatory activity in LPS-stimulated mouse BV-2 cells assessed as inhibition of IL-6 release at 10 uM and measured after 8 hrs by ELISA. In kind it is functional.
Experiment [7] deals with BV-2. Description: Antiinflammatory activity in LPS-stimulated mouse BV-2 cells assessed as inhibition of PGE2 release at 10 uM and measured after 8 hrs by ELISA. Format: functional.
In experiment [8] the test system is BV-2. Description: Antiinflammatory activity in LPS-stimulated mouse BV-2 cells assessed as inhibition of NO production at 10 uM and measured after 24 hrs by Griess method. In kind it is functional, cell-based. (Griess reagent forms a coloured azo dye with nitrite.)
Experiment [9] concerns Mus musculus. Description: Antiinflammatory activity in LPS-induced neuroinflammatory model of SPF male mouse assessed as TNF-alpha level at 4 mg/kg, iv administered once 6 hrs after LPS administration and measured by ELISA. Format: functional.
In experiment [10] the test system is Mus musculus. Description: Antiinflammatory activity in LPS-induced neuroinflammatory model of SPF male mouse assessed as TNF-alpha level at 20 mg/kg, iv administered once 6 hrs after LPS administration and measured by ELISA. In kind it is functional.
Experiment [11] relates to Mus musculus. Description: Antiinflammatory activity in LPS-induced neuroinflammatory model of SPF male mouse assessed as IL1-beta level at 4 mg/kg, iv administered once 6 hrs after LPS administration and measured by ELISA. In kind it is functional.
The test system of experiment [12] is Mus musculus. Description: Antiinflammatory activity in LPS-induced neuroinflammatory model of SPF male mouse assessed as IL1-beta level at 20 mg/kg, iv administered once 6 hrs after LPS administration and measured by ELISA. Format: functional.
Experiment [13] concerns the target Prostaglandin G/H synthase 1 (Homo sapiens, UniProt P23219). Description: Inhibition of COX-1 (unknown origin) using arachidonic acid as substrate and measured by fluorometric assay.
Experiment [14] is described as follows: Inhibition of soybean 5-LOX. The arrangement: species or system Glycine max.
The test system of experiment [15] is BV-2. Description: Antiinflammatory activity in OGD/R-induced mouse BV-2 cells assessed as inhibition of M1-phenotype polarization at 0.1 to 10 uM measured as downregulation of CD16/32+/IBA-1+ expression after 24 hrs by flow cytometry assay. The conditions noted are these: dose 0.1-10 µM. In kind it is functional, cell-based.
Experiment [16] deals with BV-2. Description: Antiinflammatory activity in OGD/R-induced mouse BV-2 cells assessed as promotion of M2-phenotype polarization at 0.1 to 10 uM measured as upregulation of CD206+/IBA-1+ expression after 24 hrs by flow cytometry assay. Format: functional, cell-based. The conditions noted are these: dose 0.1-10 µM.
The test system of experiment [17] is Rattus norvegicus. Description: Neuroprotective activity in SPF Sprague-Dawley rat model of middle cerebral artery occlusion-induced ischemia-reperfusion injury assessed as decrease in cerebral infarction area at 20 mg/kg, iv administered once a day by TTC staining based assay. In kind it is functional. On the set-up: scale not given: the % may be the effect or the level left.

Experiment [18] deals with Rattus norvegicus. Description: Neuroprotective activity in SPF Sprague-Dawley rat model of middle cerebral artery occlusion-induced ischemia-reperfusion injury assessed as inhibition of cerebral infarction at 20 mg/kg, iv administered once a day by TTC staining based assay. Format: functional.
Experiment [19] concerns Rattus norvegicus. Description: Neuroprotective activity in SPF Sprague-Dawley rat model of middle cerebral artery occlusion-induced ischemia-reperfusion injury assessed as decrease in neurological deficit score at 20 mg/kg, iv administered once a day. Format: functional, organism-based.

Sequence of Prostaglandin G/H synthase 1 (P23219 whole entry): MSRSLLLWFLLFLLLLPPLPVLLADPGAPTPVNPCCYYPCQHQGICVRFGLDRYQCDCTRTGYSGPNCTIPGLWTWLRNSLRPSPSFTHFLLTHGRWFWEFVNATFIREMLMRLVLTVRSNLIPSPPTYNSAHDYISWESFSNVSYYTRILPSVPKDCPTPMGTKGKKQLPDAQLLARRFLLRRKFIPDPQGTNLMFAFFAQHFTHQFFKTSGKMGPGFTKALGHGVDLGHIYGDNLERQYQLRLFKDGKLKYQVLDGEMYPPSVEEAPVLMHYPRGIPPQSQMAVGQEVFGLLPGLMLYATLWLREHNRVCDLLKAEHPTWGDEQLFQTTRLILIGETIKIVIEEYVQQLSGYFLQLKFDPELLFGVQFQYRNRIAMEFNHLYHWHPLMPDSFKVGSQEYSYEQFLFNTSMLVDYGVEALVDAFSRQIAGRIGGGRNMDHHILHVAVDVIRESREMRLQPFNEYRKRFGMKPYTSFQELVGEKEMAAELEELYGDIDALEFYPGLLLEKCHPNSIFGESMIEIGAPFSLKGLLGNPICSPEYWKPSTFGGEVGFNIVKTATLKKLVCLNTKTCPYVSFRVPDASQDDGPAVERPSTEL

As usually defined, the inhibition is the drop in the measured response relative to a control, in per cent. One may read the IC50 as the concentration that inhibits the measured activity by half. For orientation: inhibition in vivo means the relative decrease from the control value, in per cent. Consider `O=C(c1cc2ccccc2n1Cc1ccc(F)cc1)N1CCN(c2ncccn2)CC1`, for which the viability at 0.1 µM with BV-2 [1] worked out at 72.2%. The viability at 1 µM with BV-2 [2] stood at 83.8%. Also, the viability at 10 µM in the experiment on BV-2 [3] came to 89.7%. In addition, the inhibition at 10 µM stood at 47.9% with BV-2 [4]; 44.3% in the experiment on BV-2 [5]; 45.7% with BV-2 [6]; 47.2% in the experiment on BV-2 [7]; 9.38% in the experiment with BV-2 [8]. In addition, the Activity in the experiment on Mus musculus [9] is reported as 118.69 pg/g; in the experiment on Mus musculus [10], 87.48 pg/g; with Mus musculus [11], 69.83 pg/g; with Mus musculus [12], 48.23 pg/g; with Rattus norvegicus [17], 14.27%. For the same compound, the concentration for half-maximal inhibition (IC50) in experiment [13] came to 1630 nM; in experiment [14], 41.9 nM. Also, the result in the experiment on BV-2 [15], in the experiment with BV-2 [16] and with Rattus norvegicus [19] was Active. The inhibition in vivo at 20 mg/kg in the experiment on Rattus norvegicus [18] is 38.3%.
On to `O=C(c1nn(Cc2ccc(F)cc2)c2ccccc12)N1CCN(c2ncccn2)CC1`, for which the viability at 0.1 µM in the experiment with BV-2 [1] came to 68.5%. For the same compound, the viability at 1 µM with BV-2 [2] amounted to 82.3%. The viability at 10 µM with BV-2 [3] turned out to be 89.1%. The inhibition at 10 µM is 47.2% with BV-2 [4], 42.9% in the experiment on BV-2 [5] and 44.5% in the experiment on BV-2 [6]. Moreover, the Activity came to 111.06 pg/g in the experiment with Mus musculus [9], 101.5 pg/g with Mus musculus [10], 64.46 pg/g with Mus musculus [11] and 54.92 pg/g in the experiment on Mus musculus [12]. Moreover, the IC50 in [13] was found to be 866 nM; in experiment [14] it was 81.1 nM.

The values are drawn from ChEMBL document CHEMBL5108000, “Design and synthesis of novel indole and indazole-piperazine pyrimidine derivatives with anti-inflammatory and neuroprotective activities for ischemic stroke treatment” (Eur J Med Chem, 2022).
